Results taken from patent US20180110803A1, “Neutral Electrolyzed Water and Uses Thereof” (priority 2016, published 2018).

System: Wistar rats
Assay: formalin model of inflammatory pain
Assay type: in vivo
Settings: 100 mg/paw subcutaneous, 5 minutes before formalin

O=C(c1ccccc1)c1ccc2n1CCC2C(=O)O (stereo not shown) [Ketorolac, ketorolac]
reduction of inflammatory pain (nociceptive response): ~50%
